Changes are numbered by the printed parent chain. Residues, ends and D or L forms follow the SMILES beside them.

What is called IC50 is the midpoint of a concentration-inhibition curve. Read a high IC50 as weaker potency.

Common to all, as to assay type: cell-based, E. coli
One test concerns the target T1, WT-YjdL (Escherichia coli, UniProt P39276).
T1 construct: expressed in transfected cells; host or cells: E. coli BL21(DE3)pLysS, pTTQ18-yjdL, IPTG-induced
T1 sequence (P39276 1-485): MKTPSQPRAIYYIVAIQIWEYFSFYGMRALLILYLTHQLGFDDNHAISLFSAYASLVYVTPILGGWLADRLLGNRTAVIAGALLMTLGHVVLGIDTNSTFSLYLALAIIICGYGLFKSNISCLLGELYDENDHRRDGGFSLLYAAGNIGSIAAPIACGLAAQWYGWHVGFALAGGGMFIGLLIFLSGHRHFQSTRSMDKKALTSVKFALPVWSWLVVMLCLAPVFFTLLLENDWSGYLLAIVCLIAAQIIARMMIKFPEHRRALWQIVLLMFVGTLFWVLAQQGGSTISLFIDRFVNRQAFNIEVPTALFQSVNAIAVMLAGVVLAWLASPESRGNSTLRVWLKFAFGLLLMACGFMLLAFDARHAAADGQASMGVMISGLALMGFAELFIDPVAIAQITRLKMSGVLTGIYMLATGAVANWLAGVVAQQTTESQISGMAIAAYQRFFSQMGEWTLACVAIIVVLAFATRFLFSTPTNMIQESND
As to the kind of experiment: cell-based. The settings on record: for IC50: IC50 (inhibition of β-Ala-Lys(AMCA) uptake). The procedure:
Plasmids were transformed into E. coli BL21(DE3)pLysS cells by heat shock and transformants were selected on agar plates containing 100 µg/mL ampicillin and 34 µg/mL chloramphenicol. Single transformants were inoculated into 2 mL LB-media with antibiotics as above and grown overnight. The cultures were diluted 1∶50 in 5 mL LB-media with antibiotics as above, and at an OD600 of 0.5–0.8 protein expression was induced by the addition of 1 mM isopropyl β-D-1-thiogalactopyranoside (IPTG). […]
(§1) Uptake assays were performed as previously described, [20]. In a final assay volume of 100 µL; 0.2 mM β-Ala-Lys-N-7-amino-4-methylcoumarin-3-acetic acid (β-Ala-Lys(AMCA), Biotrend) (10 µL) and various concentrations of ligands (purchased from Bachem or Sigma-Aldrich) or uptake buffer (50 µL) were incubated with bacterial cell suspension (OD600 = 10, 40 µL) at 37°C. After 5 min, the uptake was stopped by addition of 500 µL ice-cold uptake buffer followed by immediate centrifugation and washing twice in ice-cold uptake buffer. Finally the cell pellet was resuspended in 100 µL uptake buffer, and the uptake was quantified by fluorescence measurements (excitation at 340 nm and emission at 460 nm) on a Safire 2 fluorimeter. Non-specific uptake was measured as described above on IPTG-induced E. coli BL21(DE3)pLysS cells harboring the empty pTTQ18 vector. All uptake assay experiments were reproduced at least three times independently and data analyses were performed using GraphPad Prism ver. 5.

The target in another test is T2, YjdL Tyr21Phe (Escherichia coli, UniProt P39276, Y21F).
T2 construct: expressed in transfected cells; host or cells: E. coli BL21(DE3)pLysS, pTTQ18-yjdL mutant (QuikChange)
T2 sequence (P39276 1-485 Y21F): T1 sequence (P39276 1-485) with Y21F
The test can be described thus: β-Ala-Lys(AMCA) uptake and inhibition assay, YjdL Tyr21Phe. As to conditions: 0.2 mM β-Ala-Lys(AMCA), 5 min incubation, pH 6.5; ±SEM, n≥3. The method, then: (§2) Plasmids were transformed into E. coli BL21(DE3)pLysS cells by heat shock and transformants were selected on agar plates containing 100 µg/mL ampicillin and 34 µg/mL chloramphenicol. Single transformants were inoculated into 2 mL LB-media with antibiotics as above and grown overnight. The cultures were diluted 1∶50 in 5 mL LB-media with antibiotics as above, and at an OD600 of 0.5–0.8 protein expression was induced by the addition of 1 mM isopropyl β-D-1-thiogalactopyranoside (IPTG). The cells were harvested after three hours of induction by centrifugation and resuspended in uptake buffer (50 mM MES pH 6.5, 140 mM NaCl, 5.4 mM KCl, 1.8 mM CaCl2, 0.8 mM MgSO4, and 5 mM glucose).
as §1

Another test has as its target T3, YjdL Tyr113Phe (Escherichia coli, UniProt P39276, Y113F).
T3 construct: expressed in transfected cells; host or cells: E. coli BL21(DE3)pLysS, pTTQ18-yjdL mutant (QuikChange)
T3 sequence (P39276 1-485 Y113F): T1 sequence (P39276 1-485) with Y113F
As to the kind of experiment: β-Ala-Lys(AMCA) uptake and inhibition assay, YjdL Tyr113Phe. As to conditions: for IC50: 0.2 mM β-Ala-Lys(AMCA), 5 min incubation, pH 6.5, ±SEM, n≥3. The procedure: as §2, §1

As for `C[C@H](N)C(=O)N[C@@H](C)C(=O)O` [Ala-Ala] (H-Ala-Ala-OH), on WT-YjdL, the “IC50 at pH 6.5 (50 mM MES) relative to previous studies at pH 7.4 (25 mM Tris/HEPES), WT-YjdL” value was “eight”. Besides, the IC50 on WT-YjdL (WT-YjdL a) stood at 2800 ± 600 µM; at WT-YjdL (WT-YjdL b), 2200 ± 100 µM; against YjdL Tyr21Phe, 4500 ± 300 µM; at YjdL Tyr113Phe, 1900 ± 100 µM.
Turning to `C[C@H](N)C(=O)N[C@@H](CCCCN)C(=O)O` [Ala-Lys] (H-Ala-Lys-OH), the IC50 turned out to be 280 ± 10 µM against WT-YjdL (WT-YjdL a), 890 ± 160 µM on WT-YjdL (WT-YjdL b), 450 ± 70 µM against YjdL Tyr21Phe and 340 ± 40 µM against YjdL Tyr113Phe.
As to `C[C@H](NC(=O)[C@@H](N)Cc1ccc(O)cc1)C(=O)O` [Tyr-Ala], the “IC50 at pH 6.5 (50 mM MES) relative to previous studies at pH 7.4 (25 mM Tris/HEPES), WT-YjdL” value at WT-YjdL was “same”. Also, the IC50 worked out at 2400 ± 400 µM on WT-YjdL (WT-YjdL a), 2400 ± 200 µM against WT-YjdL (WT-YjdL b), 4700 ± 800 µM at YjdL Tyr21Phe and 1300 ± 300 µM on YjdL Tyr113Phe.
In turn, “β-Ala-Lys-N-7-amino-4-methylcoumarin-3-acetic acid [β-Ala-Lys(AMCA)]” registered a Kt at WT-YjdL (WT YjdL, data not shown) of about 5 mM. Moreover, the “increase of β-Ala-Lys(AMCA) uptake, YjdL Tyr113Phe” value on YjdL Tyr113Phe (0.2 mM, 5 min, pH 6.5 (Figure 3)) is about 2 fold.
